From patent publication US9499508B2, “2-pyrones” (MERCK PATENT GMBH, priority 2010, dated 2016)

Tests used:
[1] = tested on: normal human adipocytes; experiment: Lipolysis, unesterified fatty acids liberated from adipocytes; assay type: cell-based; settings: 2 hours; for lipolytic activity, dependence on concentration: 0.25 mM, 0.5 mM, 1 mM and 2 mM
Method: The study is carried out using normal human adipocytes originating from the lower abdomen biopsy of a person. The hypodermis is isolated from the biopsy and incubated at 37° C. for 30 minutes with collagenase solution. The separated adipocytes are washed and diluted with assay medium (MEM without Phenol Red, penicillin 25 UI/ml/streptomycin […], L-glutamine 2 mM, bovine serum albumin (BSA), fatty acid-free: 0.5% (p/v)).
The test solutions or the caffeine reference are added to the cell suspensions, and the mixtures are incubated at 37° C. and in a 5% CO2 atmosphere for 2 hours.
After this time, the unesterified fatty acids liberated from the samples are quantified. The measurement is carried out using a Wako NEFA-C test kit in accordance with the instruction manual.

[2] = tested on: repetin (RPTN); experiment: cDNA array, gene expression of RPTN; assay type: cell-based; settings: primary epidermal keratinocytes, 24 hours
Method: (§1) The assay is carried out using primary epidermal keratinocytes. […] All-trans retinoic acid is used as positive control. The cells are then cultured at 37° C. and under 5% CO2 for 24 hours.
(§2) The mRNA is isolated using the RNEASY Minikit test kit from Qiagen in accordance with the instruction manual. 1 μg of the RNA is then in each case converted into cDNA with the aid of the Firsts Strand cDNA synthesis kit from Roche. The 20 μl of cDNA obtained are diluted 1/10, and 110 μl of TaqMan™ Universal PCR Master Mix are in each case added to 110 μl of the cDNA samples. 100 μl are pipetted per slot into the Custom TaqMan™ array cards. The cards are sealed, centrifuged and then measured using the TaqMan™ 7900HT. The values obtained are standardised. Values less than or equal to −1.5 indicate moderate to strong downregulation of the expression of the genes investigated.

[3] = tested on: loricrin (LOR); experiment: cDNA array, gene expression of LOR; assay type: cell-based; settings: primary epidermal keratinocytes, 24 hours
Method: as §1, §2

[4] = tested on: calgranulin B (S100A9); experiment: cDNA array, gene expression of S100A9; assay type: cell-based; settings: primary epidermal keratinocytes, 24 hours
Method: (§3) The assay is carried out using primary epidermal keratinocytes. After incubation at 37° C. and in a 5% CO2 atmosphere for 48 hours, the culture medium (DPBS and HyQtase cell detachment solution) is removed, and the test substances 4-hydroxy-6-methyl-2-pyrone Ia (40 μM) and 3-((E)-3,7-dimethylocta-2,6-dienyl)-4-hydroxy-6-methyl-2-pyrone Ii ([…]) in assay medium (keratinocytes basal medium M2 and supplement mix) are added. All-trans retinoic acid is used as positive control. The cells are then cultured at 37° C. and under 5% CO2 for 24 hours.
as §2

[5] = tested on: desmoplakin (DSP); experiment: cDNA array, gene expression of DSP; assay type: cell-based; settings: primary epidermal keratinocytes, 24 hours
Method: as §3, §2
(§4) A second group of genes (Table 2) considered encodes for proteins which correlate with cell-cell connections. Corneodesmosin (CDSN), desmoglein 1 (DSG1), desmoplakin (DSP) and desmocollin 3 (DSC3) are tested, the associated regulation factors are shown in Table 2. […] The downregulation of this protein family is known for retinoids.

[6] = tested on: involucrin (IVL); experiment: cDNA array, gene expression of IVL; assay type: cell-based; settings: primary epidermal keratinocytes, 24 hours
Method: as §1, §2

[7] = tested on: Corneodesmosin (CDSN); experiment: cDNA array, gene expression of CDSN; assay type: cell-based; settings: primary epidermal keratinocytes, 24 hours
Method: as §3, §2, §4

[8] = tested on: calmodulin-like protein (CALML5); experiment: cDNA array, gene expression of CALML5; assay type: cell-based; settings: primary epidermal keratinocytes, 24 hours
Method: as §1, §2

[9] = tested on: filaggrin (FLG); experiment: cDNA array, gene expression of FLG; assay type: cell-based; settings: primary epidermal keratinocytes, 24 hours
Method: as §3, §2

[10] = tested on: desmoglein 1 (DSG1); experiment: cDNA array, gene expression of DSG1; assay type: cell-based; settings: primary epidermal keratinocytes, 24 hours
Method: as §3, §2, §4

[11] = tested on: transglutaminase 1 (TGM1); experiment: cDNA array, gene expression of TGM1; assay type: cell-based; settings: primary epidermal keratinocytes, 24 hours
Method: as §3, §2

[12] = tested on: calgranulin A (S100A8); experiment: cDNA array, gene expression of S100A8; assay type: cell-based; settings: primary epidermal keratinocytes, 24 hours
Method: as §3, §2

[13] = tested on: desmocollin 3 (DSC3); experiment: cDNA array, gene expression of DSC3; assay type: cell-based; settings: primary epidermal keratinocytes, 24 hours
Method: as §3, §2, §4

[14] = tested on: skin explants from the lower abdomen tissue; experiment: Ex-vivo study on skin explants, histology; set-up: species or system human
Method: Histological explants having an average diameter of 10 mm from the lower abdomen tissue of a person are prepared. The pieces of tissue are stored in BEM medium in a moist, 5% CO2 atmosphere at 37° C. The tissue is divided into 3 batches of 6 explants each.
Batch K represents the negative control. Only the vehicle is applied to batch V. Batch P is treated with 4-hydroxy-6-methyl-2-pyrone Ia (1% in Mygliol/ethanol 80/20). 30 μl of the 1% substance solutions in Myliol/ethanol (80/20) are applied using a round filter paper and allowed to act for 2 hours. Applications are carried out on day 0, 1, 4, 6 and 7.
On the 8th day, 3 pieces of tissue from each batch are fixed in Bouin solution. After fixing for 48 hours, the samples are dehydrated by means of Leica TP 1020 and soaked in paraffin. Tissue sections with a thickness of 5 μm are produced from the paraffin blocks using a microtome and mounted on Superfrost specimen slides. The microscopic investigation is carried out using a Leica Orthoplan microscope after the tissue sections mounted on specimen slides have been stained with Masson-Goldner trichrome stain. In order to be able to assess the effect of the substances, the thickness of the epidermis or the change thereof is measured.

In the case of `CCCCC(CC)Oc1cc(C)oc(=O)c1` (centres unmarked) [Ij, 4-(1-Ethylpentyloxy)-6-methyl-2-pyrone], the “lipolytic activity, dependence on concentration” value [1] is reported as “increase the lipolytic activity as a function of concentration” and the “stimulation of lipolysis (triacylglycerin degradation)” value (“stimulation of lipolysis” below) ([1]; 2 mM) is reported as 57%.
For `CC(C)=CCC/C(C)=C/Cc1c(O)cc(C)oc1=O` [Ii, 3-((E)-3,7-Dimethylocta-2,6-dienyl)-4-hydroxy-6-methyl-2-pyrone], the “RPTN gene expression, standardised value” ([2]; 50 μM) was 1.57, the “LOR gene expression, standardised value” ([3]; 50 μM) was −1.59 and the “S100A9 gene expression, standardised value” (“S100A9 gene expression” for short) ([4]; 50 μM) was −1.48. For the same compound, the “stimulation of lipolysis” value ([1]; 1 mM) was −60%, the “stimulation of lipolysis” value ([1]; 2 mM) was −67% and the “DSP gene expression, regulation factor” value ([5]; 50 μM) was −1.53. The “IVL gene expression, standardised value” ([6]; 50 μM) was −3.82, the “CDSN gene expression, regulation factor” value ([7]; 50 μM) was −13.20 and the “CALML5 gene expression, standardised value” (shortened to “CALML5 gene expression”) ([8]; 50 μM) was −2.58. For the same compound, the “FLG gene expression, standardised value” ([9]; 50 μM) was −4.67, the “DSG1 gene expression, regulation factor” value ([10]; 50 μM) was −8.20 and the “TGM1 gene expression, standardised value” ([11]; 50 μM) was −1.56. For the same compound, the “S100A8 gene expression, standardised value” (“S100A8 gene expression” below) ([12]; 50 μM) was −2.93 and the “DSC3 gene expression, regulation factor” value ([13]; 50 μM) was −1.14.
`COc1cc(C)oc(=O)c1` [Ib, 4-Methoxy-6-methyl-2-pyrone] was tested, and the “lipolytic activity, dependence on concentration” value [1] was “increase the lipolytic activity as a function of concentration” and the “stimulation of lipolysis” value ([1]; 2 mM) was 82%.
With `Cc1cc(O)cc(=O)o1` [Ia, 4-hydroxy-6-methyl-2-pyrone] the “RPTN gene expression, standardised value” ([2]; 40 μM) was −3.33, the “LOR gene expression, standardised value” ([3]; 40 μM) was −4.56 and the “collagen network in the dermis along the dermo-epidermal junction zone” value ([14]; 1% in Mygliol/ethanol 80/20, topical on day 0, 1, 4, 6 and 7, day 8) was “becomes denser”. For the same compound, the “thicker epidermis compared with the vehicle” value ([14]; 1% in Mygliol/ethanol 80/20, topical on day 0, 1, 4, 6 and 7, measured on the 8th day) was 10%, the “S100A9 gene expression” value ([4]; 40 μM) was −2.18 and the “DSP gene expression, regulation factor” value ([5]; 40 μM) was −1.40. The “IVL gene expression, standardised value” ([6]; 40 μM) was −1.76, the “CDSN gene expression, regulation factor” value ([7]; 40 μM) was −2.14 and the “CALML5 gene expression” value ([8]; 40 μM) was −3.14. The “FLG gene expression, standardised value” ([9]; 40 μM) was 1.01, the “DSG1 gene expression, regulation factor” value ([10]; 40 μM) was −1.39 and the “TGM1 gene expression, standardised value” ([11]; 40 μM) was −1.26. For the same compound, the “S100A8 gene expression” value ([12]; 40 μM) was −1.74 and the “DSC3 gene expression, regulation factor” value ([13]; 40 μM) was −1.69.
For `CC1=C(/C=C/C(C)=C/C=C/C(C)=C/C(=O)O)C(C)(C)CCC1` [all-trans retinoic acid, All-trans retinoic acid, reference compound], the “RPTN gene expression, standardised value” ([2]; 5 μM) was −2.56, the “LOR gene expression, standardised value” ([3]; 5 μM) was −7.01 and the “S100A9 gene expression” value ([4]; 5 μM) was −3.49. The “DSP gene expression, regulation factor” value ([5]; concentration not given) was −1.56, the “IVL gene expression, standardised value” ([6]; 5 μM) was −4.05 and the “CDSN gene expression, regulation factor” value ([7]; concentration not given) was −2.37. The “CALML5 gene expression” value ([8]; 5 μM) was −2.93, the “FLG gene expression, standardised value” ([9]; 5 μM) was −3.20 and the “DSG1 gene expression, regulation factor” value ([10]; concentration not given) was −9.22. For the same compound, the “TGM1 gene expression, standardised value” ([11]; 5 μM) was −3.56, the “S100A8 gene expression” value ([12]; 5 μM) was −3.26 and the “DSC3 gene expression, regulation factor” value ([13]; concentration not given) was −1.23.
